# Where two headings read alike, the source gives them in different places.
# Experiments:
# [1] = target: CYP2C19 pooled human supersomes (Homo sapiens, UniProt P33261); test: CYP2C19 supersome screening; format: in vitro ADME; settings: 10 μM; strongly metabolized = less than 80% of the drug remaining
# [2] = test system: CYP1A2, 2C9, 2C19, 2D6, and 3A4 pooled human supersomes; settings: 10 μM, recorded from major to minor
# [3] = target: CYP2C9 pooled human supersomes (Homo sapiens, UniProt P11712); test: CYP2C9 supersome screening; format: in vitro ADME; settings: 10 μM; strongly metabolized = less than 80% of the drug remaining
# Chain of CYP2C9 pooled human supersomes (P11712 whole entry): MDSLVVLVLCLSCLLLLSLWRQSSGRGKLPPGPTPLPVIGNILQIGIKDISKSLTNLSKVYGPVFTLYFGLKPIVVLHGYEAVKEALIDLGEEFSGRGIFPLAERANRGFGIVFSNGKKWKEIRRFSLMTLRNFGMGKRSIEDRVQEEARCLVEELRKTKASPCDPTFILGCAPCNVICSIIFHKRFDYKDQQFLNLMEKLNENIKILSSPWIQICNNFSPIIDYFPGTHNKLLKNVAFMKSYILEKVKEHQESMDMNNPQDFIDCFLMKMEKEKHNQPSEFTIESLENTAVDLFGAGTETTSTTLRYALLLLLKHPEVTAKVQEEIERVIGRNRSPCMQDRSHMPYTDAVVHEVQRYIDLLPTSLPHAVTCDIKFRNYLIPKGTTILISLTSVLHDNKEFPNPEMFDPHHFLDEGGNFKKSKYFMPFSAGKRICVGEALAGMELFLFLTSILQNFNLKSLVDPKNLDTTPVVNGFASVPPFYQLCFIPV
# [4] = test system: pooled cryopreserved primary human hepatocytes; settings: single drug, 10 μM, 3 h
# Chain of CYP2C19 pooled human supersomes (P33261 whole entry): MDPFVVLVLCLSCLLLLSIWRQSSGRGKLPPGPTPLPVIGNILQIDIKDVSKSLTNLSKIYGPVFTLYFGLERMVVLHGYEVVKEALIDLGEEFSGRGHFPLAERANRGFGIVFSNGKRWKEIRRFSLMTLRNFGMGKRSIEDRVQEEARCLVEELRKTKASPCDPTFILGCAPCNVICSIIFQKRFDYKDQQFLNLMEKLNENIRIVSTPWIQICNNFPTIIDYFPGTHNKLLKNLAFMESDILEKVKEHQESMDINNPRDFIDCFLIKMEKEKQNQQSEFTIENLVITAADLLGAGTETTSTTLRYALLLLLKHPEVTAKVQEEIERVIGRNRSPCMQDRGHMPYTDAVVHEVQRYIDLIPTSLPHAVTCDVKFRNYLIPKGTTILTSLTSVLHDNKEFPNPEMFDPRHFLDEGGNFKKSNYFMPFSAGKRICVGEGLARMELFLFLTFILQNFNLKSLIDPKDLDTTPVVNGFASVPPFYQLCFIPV
SMILES,Drug remaining with CYP2C19 (strongly metabolized) [1],Metabolism Pathway: CYP Pathway (isoenzymes showing parent degradation) [2],other results
"CN(C)CCCC1(c2ccc(F)cc2)OCc2cc(C#N)ccc21 (centres unmarked) [Citalopram, citalopram]",less than 80%,"CYP 2D6∗, 2C19∗, 3A4, 2C9","Metabolism Pathway: CYP Pathway (isoenzymes showing parent degradation) ([2]; listed as citalopram): CYP2D6, 2C19, 3A4, and 2C9"
"CN[C@H]1CC[C@@H](c2ccc(Cl)c(Cl)c2)c2ccccc21 [Sertraline, sertraline]",less than 80%,"CYP 2D6∗, 2C9∗, 2C19∗, 1A2, 3A4","Drug remaining with CYP2C9 (strongly metabolized) [3]: less than 80%; Metabolism Pathway: CYP Pathway (isoenzymes showing parent degradation) ([2]; listed as sertraline): CYP2D6, 2C9, 2C19, 1A2, and 3A4"
"COc1cc2ncnc(Nc3ccc(F)c(Cl)c3)c2cc1OCCCN1CCOCC1 [Gefitinib, gefitinib]",–,"CYP 2D6 ∗, 3A4∗, 1A2, 2C9, 2C19","Metabolism Pathway: CYP Pathway (isoenzymes showing parent degradation) ([2]; listed as gefitinib): CYP2D6, 3A4, 1A2, 2C9, and 2C19"
"COCCCC/C(=N\OCCN)c1ccc(C(F)(F)F)cc1 [Fluvoxamine, fluvoxamine]",–,"CYP 2D6∗, 2C9, 2C19","Metabolism Pathway: CYP Pathway (isoenzymes showing parent degradation) ([2]; listed as fluvoxamine): CYP2D6, 2C9, and 2C19"
"Fc1ccc([C@@H]2CCNC[C@H]2COc2ccc3c(c2)OCO3)cc1 [Paroxetine, paroxetine]",–,–,Potential metabolites observed in hepatocytes (alone) assays [4]: no potential metabolites observed
"COc1ccc(C(CN(C)C)C2(O)CCCCC2)cc1 (centres unmarked) [Venlafaxine, venlafaxine]",–,"CYP 2D6∗, 2C19∗",Metabolism Pathway: CYP Pathway (isoenzymes showing parent degradation) ([2]; listed as venlafaxine): CYP2D6 and 2C19

# Source: article PMC9218239 (Current Research in Pharmacology and Drug Discovery, 2022)
